Measured values reported in ChEMBL document CHEMBL3885881, “DrugMatrix”.

Species: Rattus norvegicus
Assay: DrugMatrix - Regimen: Daily Repeat
Type: toxicity, organism-based, Sprague-Dawley
Set-up: regimen Daily Repeat, gender Male, age 6-8 weeks
Conditions: in vivo, po, 750 mg/kg, route oral GAVAGE, dose level High, vehicle .5 % CMC; for ABSOLUTE BASOPHIL / ABSOLUTE EOSINOPHIL / ABSOLUTE LYMPHOCYTE / ABSOLUTE MONOCYTE / ABSOLUTE SEGMENTED NEUTROPHIL / BASOPHIL / EOSINOPHIL / ERYTHROCYTE COUNT / HEMATOCRIT / HEMOGLOBIN / LEUKOCYTE COUNT / LYMPHOCYTE / MEAN CORPUSCULAR HEMOGLOBIN / MEAN CORPUSCULAR HEMOGLOBIN CONCENTRATION / MEAN CORPUSCULAR VOLUME / MONOCYTE / NEUTROPHIL / NUCLEATED RED BLOOD CELLS / PLATELET COUNT: tissue Blood; for ALANINE AMINOTRANSFERASE / ALBUMIN / ALKALINE PHOSPHATASE / ASPARTATE AMINOTRANSFERASE / BLOOD UREA NITROGEN / CARBON DIOXIDE / CHLORIDE / CHOLESTEROL / CREATINE PHOSPHOKINASE / CREATININE / GLUCOSE / LACTATE DEHYDROGENASE / LIPASE / PHOSPHORUS / POTASSIUM / SODIUM / TOTAL BILIRUBIN / TOTAL PROTEIN / URIC ACID: tissue Plasma

## CC(=O)OC[C@H]1O[C@@H](n2ncc(=O)[nH]c2=O)[C@H](OC(C)=O)[C@@H]1OC(C)=O [AZARIBINE]
72 h, time 3 day
  ABSOLUTE BASOPHIL: 0 CELLS/uL
  ABSOLUTE EOSINOPHIL: 37.33 CELLS/uL
  ABSOLUTE LYMPHOCYTE: 11597.33 CELLS/uL
  ABSOLUTE MONOCYTE: 87.33 CELLS/uL
  ABSOLUTE SEGMENTED NEUTROPHIL: 844.67 CELLS/uL
  BASOPHIL: 0%
  EOSINOPHIL: 0.33%
  ERYTHROCYTE COUNT: 4.98 x10E6/uL
  HEMATOCRIT: 31.27%
  HEMOGLOBIN: 11.73 G/DL
  LEUKOCYTE COUNT: 12.57 x10E3/uL
  LYMPHOCYTE: 92%
  MEAN CORPUSCULAR HEMOGLOBIN: 23.63 pg
  MEAN CORPUSCULAR HEMOGLOBIN CONCENTRATION: 37.53 G/DL
  MEAN CORPUSCULAR VOLUME: 62.9 fL
  MONOCYTE: 0.67%
  NEUTROPHIL: 7%
  NUCLEATED RED BLOOD CELLS: 0 /100WBC
  PLATELET COUNT: 1125.67 x10E3/uL
  ALANINE AMINOTRANSFERASE: 29 u/L
  ALBUMIN: 4.23 G/DL
  ALKALINE PHOSPHATASE: 344 u/L
  ASPARTATE AMINOTRANSFERASE: 95.33 u/L
  BLOOD UREA NITROGEN: 18 mg/dL
  CARBON DIOXIDE: 25.67 mmol/L
  CHLORIDE: 101 MEQ/L
  CHOLESTEROL: 66 mg/dL
  CREATINE PHOSPHOKINASE: 781.33 u/L
  CREATININE: 0.22 mg/dL
  GLUCOSE: 147.33 mg/dL
  LACTATE DEHYDROGENASE: 248.33 u/L
  LIPASE: 10.33 u/L
  PHOSPHORUS: 12.2 mg/dL
  POTASSIUM: 5.97 MEQ/L
  SODIUM: 141.5 MEQ/L
  TOTAL BILIRUBIN: 0.2 mg/dL
  TOTAL PROTEIN: 6.1 G/DL
  URIC ACID: 1.43 mg/dL
120 h, time 5 day
  ABSOLUTE BASOPHIL: 0 CELLS/uL
  ABSOLUTE EOSINOPHIL: 49.33 CELLS/uL
  ABSOLUTE LYMPHOCYTE: 12972.67 CELLS/uL
  ABSOLUTE MONOCYTE: 95.67 CELLS/uL
  ABSOLUTE SEGMENTED NEUTROPHIL: 649 CELLS/uL
  BASOPHIL: 0%
  EOSINOPHIL: 0.33%
  ERYTHROCYTE COUNT: 5 x10E6/uL
  HEMATOCRIT: 29.63%
  HEMOGLOBIN: 11.47 G/DL
  LEUKOCYTE COUNT: 13.77 x10E3/uL
  LYMPHOCYTE: 94.33%
  MEAN CORPUSCULAR HEMOGLOBIN: 22.93 pg
  MEAN CORPUSCULAR HEMOGLOBIN CONCENTRATION: 38.7 G/DL
  MEAN CORPUSCULAR VOLUME: 59.27 fL
  MONOCYTE: 0.67%
  NEUTROPHIL: 4.67%
  NUCLEATED RED BLOOD CELLS: 0 /100WBC
  PLATELET COUNT: 1279 x10E3/uL
  ALANINE AMINOTRANSFERASE: 26.67 u/L
  ALBUMIN: 4.07 G/DL
  ALKALINE PHOSPHATASE: 306.67 u/L
  ASPARTATE AMINOTRANSFERASE: 81.33 u/L
  BLOOD UREA NITROGEN: 15.33 mg/dL
  CARBON DIOXIDE: 30.33 mmol/L
  CHLORIDE: 98.67 MEQ/L
  CHOLESTEROL: 73.67 mg/dL
  CREATINE PHOSPHOKINASE: 266 u/L
  CREATININE: 0.22 mg/dL
  GLUCOSE: 135.67 mg/dL
  LACTATE DEHYDROGENASE: 347 u/L
  LIPASE: 10 u/L
  PHOSPHORUS: 11.07 mg/dL
  POTASSIUM: 6.41 MEQ/L
  SODIUM: 142.17 MEQ/L
  TOTAL BILIRUBIN: 0.1 mg/dL
  TOTAL PROTEIN: 6 G/DL
  URIC ACID: 1.37 mg/dL
